Experimental findings from PubChem BioAssay (NCI) are described below.

Molecules are shown by their SMILES. Several values for one entry are separate records, joined by “and”; a condition that tells them apart may be missing. Equal entries are not always repeated.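 How tested: cells in 96-well plates exposed to compound for 48 hours at five concentrations. The concentration for 50% growth inhibition is given as GI50. TGI marks complete inhibition of growth.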 Bounds are passed on as bounds.

Holding throughout (assay): NCI-60 cell line screen, 48 h
Experiment [1] deals with A549 NSCLC.
For experiment [2], the system named is HCC-2998 colon.
Experiment [3] has as its system K-562 leukemia.
Experiment [4] deals with LOX IMVI melanoma.
Experiment [5] deals with NCI/ADR-RES ovarian.
The subject of experiment [6] is OVCAR-4 ovarian.
The test system of experiment [7] is SK-MEL-2 melanoma.
For experiment [8], the system named is SNB-19 CNS.
Experiment [9] relates to SR leukemia.
Experiment [10] relates to TK-10 renal.

Turning to `Cc1c(-c2ccnc(N)n2)c2c(n1-c1ccccc1)C(=O)c1ccccc1C2=O`, the GI50 is 36.1 µM in [1]; 19.7 µM in experiment [2]; 3.78 µM in experiment [3]; 10.6 µM in [4]; 15.8 µM in experiment [5]; 58.3 µM in experiment [6]. The GI50 is 22.9 µM in experiment [7], 70 µM in [8], 1.01 µM in experiment [9] and 20.2 µM in [10]. Also, the TGI is above 100 µM in experiment [1]; 46.5 µM in experiment [2]; 25.5 µM in [3]; 24.2 µM in [4]; 66.8 µM in experiment [5]; above 100 µM in experiment [6]. For the same compound, the TGI in experiment [7] is 57.2 µM; in experiment [8], above 100 µM; in [9], 3.84 µM; in experiment [10], 63.3 µM.
For `COc1cc2cc(Oc3ccc(NC(=O)Nc4cc(C(F)(F)F)cc(C(F)(F)F)c4)cc3)c(C)nc2cc1OCCN1CCCCC1`, the GI50 is 1.8 µM in [1]; 1.78 µM in [2]; 1.5 µM in experiment [3]; 1.71 µM in experiment [4]; 1.68 µM in experiment [5]; 1.89 µM in experiment [6]. Moreover, the GI50 is 1.85 µM in experiment [7], 1.71 µM in [8], 1.75 µM in experiment [9] and 2.06 µM in experiment [10]. The TGI was 3.62 µM in experiment [1]; 3.29 µM in experiment [2]; 3.31 µM in experiment [3]; 3.17 µM in experiment [4]; 3.24 µM in [5]; 3.61 µM in experiment [6]. In addition, the TGI stood at 3.57 µM in [7], 3.18 µM in experiment [8], 5.79 µM in [9] and 3.71 µM in experiment [10].
In the case of `CCCCCCCC(=O)O[C@H]1[C@H]2[C@@H](CC1(C)C)C(=O)[C@]13O[C@H]1C(=O)[C@]1(CO1)[C@]23C`, the GI50 was 22.5 µM in experiment [1]; 9.4 µM in experiment [2]; 1.52 µM in [3]; 2.16 µM in [4]; 2.39 µM and 1.72 µM in [5]; 2.83 µM in [6]. Further, the GI50 in experiment [7] is 22.7 µM. Moreover, the TGI is 38.2 µM and 63.6 µM in experiment [1]; 21.3 µM and 13.2 µM in [2]; 5.13 µM and 5.3 µM in experiment [3]; 5.63 µM and 5.48 µM in experiment [4]; 5.26 µM and 9.64 µM in experiment [5]; 9.2 µM and 9.85 µM in experiment [6]. Further, the TGI in experiment [7] was 45.5 µM and 8.57 µM; in experiment [8] it was 44.9 µM and 45.9 µM; in experiment [9], above 38.7 µM; in [10], 6.47 µM.
Turning to `CCN(CC)CCn1nc2c3c(cccc3c1=O)-c1ccccc1-2`, the GI50 in experiment [1] was 1.05 µM; in experiment [2], 2 µM; in experiment [3], 2.03 µM; in [4], 1.31 µM; in experiment [5], 2.19 µM; in experiment [6], 3.33 µM. In addition, the GI50 in experiment [7] is 3.79 µM; in experiment [8] it was 2.63 µM; in experiment [9] it was 0.896 µM; in [10], 2.09 µM. Moreover, the TGI in experiment [1] is 19.8 µM; in experiment [2], 11 µM; in experiment [3], above 50 µM; in [4] it was 4.74 µM; in experiment [5], 45.1 µM; in experiment [6], 26 µM. Moreover, the TGI in experiment [7] is 13 µM; in experiment [8], above 50 µM; in experiment [9], 8.98 µM; in experiment [10], 34.4 µM.
Consider `Cn1cc(C2=C(c3cccc(Cl)c3)C(=O)NC2=O)c2ccccc21`, for which the GI50 in experiment [1] is above 25 µM; in [2] it was 9.59 µM; in experiment [3] it was 12.6 µM; in experiment [4], above 25 µM; in [5], above 25 µM; in [6], above 22.6 µM. In addition, the GI50 in [7] was above 25 µM; in [8], above 25 µM; in experiment [9], 13.9 µM; in experiment [10], 13.4 µM. For the same compound, the TGI in experiment [1], in experiment [2], in experiment [3], in experiment [4], in experiment [5] and in [6] was above 25 µM each time. For the same compound, the TGI in [7], in experiment [8], in experiment [9] and in experiment [10] was above 25 µM throughout.
On to `O=C(Nc1ccc(I)cc1F)c1cc(F)ccc1O`, for which the GI50 in experiment [1] was 2.24 µM; in [2], 3.1 µM; in experiment [3], 0.407 µM; in experiment [4] it was 0.418 µM; in experiment [5], 0.401 µM; in [6] it was 0.396 µM. The GI50 in experiment [7] is 0.367 µM; in experiment [8], 0.406 µM; in [9], 0.413 µM; in [10], 1.59 µM. The TGI is above 100 µM in experiment [1]; 26.4 µM in experiment [2]; above 42.1 µM in experiment [3]; 3.91 µM in experiment [4]; above 27.7 µM in [5]; 17.2 µM in [6]. In addition, the TGI was 1.92 µM in experiment [7], above 100 µM in experiment [8], above 35.7 µM in [9] and 24.2 µM in [10].
As for `O=C(O)c1ccccc1/C=C1/Nc2ccccc2C1=O`, the TGI in experiment [1], in experiment [2], in [3], in experiment [4], in [5] and in experiment [6] was above 100 µM each time. The TGI in [7], in [8], in experiment [9] and in experiment [10] was above 100 µM in each case.
As to `COC(=O)C1=C(C)NC(C)=C(C(=O)OC)C1c1ccccc1[N+](=O)[O-]`, the GI50 in experiment [1] is above 100 µM; in experiment [2], above 100 µM; in experiment [3], 78.8 µM; in experiment [4], above 100 µM; in experiment [5] it was 49.3 µM; in experiment [6], 61.9 µM. Moreover, the GI50 was above 100 µM in [7], above 100 µM in experiment [8], 34.7 µM in experiment [9] and above 100 µM in experiment [10]. In addition, the TGI in experiment [1], in experiment [2], in experiment [3], in experiment [4], in experiment [5] and in [6] was above 100 µM throughout. Besides, the TGI in experiment [7], in experiment [8], in experiment [9] and in experiment [10] was above 100 µM in each case.
As to `Fc1ccc(-c2ncn(C3CCNCC3)c2-c2ccnc(Oc3ccc(Oc4ccccc4)cc3)n2)cc1`, the GI50 in experiment [1] is 4.09 µM; in [2], 3.15 µM; in [3] it was 1.95 µM; in experiment [4], 3.15 µM; in experiment [5], 3.48 µM; in [6] it was 3.78 µM. Further, the GI50 in [7] was 5.03 µM; in experiment [8], 4.25 µM; in experiment [9], 2.1 µM; in [10] it was 4.35 µM. Further, the TGI is 7.84 µM in [1]; 6.69 µM in experiment [2]; 5.74 µM in experiment [3]; 7.09 µM in experiment [4]; 7.04 µM in experiment [5]; 7.27 µM in [6]. The TGI in experiment [7] was determined as 9.06 µM; in [8], 7.92 µM; in experiment [9], 6.42 µM; in experiment [10] it was 7.98 µM.
Regarding `CN1CCN(Cc2ccc(NC(=O)c3cncc(C#Cc4cncc5[nH]ncc45)c3)cc2C(F)(F)F)CC1`, the GI50 was 1.67 µM in experiment [1]; 0.777 µM in [2]; 0.005 µM in [3]; 0.171 µM in experiment [4]; 4.09 µM in [5]; 0.171 µM in experiment [6]. Moreover, the GI50 in experiment [7] was 0.295 µM; in experiment [8], 3.81 µM; in experiment [9], 1.04 µM; in [10] it was 1.38 µM. The TGI was 6.79 µM in experiment [1]; 5.88 µM in experiment [2]; 1.64 µM in experiment [3]; 0.689 µM in experiment [4]; 11.3 µM in experiment [5]; 5.34 µM in [6]. The TGI in experiment [7] was determined as 1.25 µM; in [8], 9.93 µM; in experiment [9] it was 10.7 µM; in [10], 5.43 µM.
As for `CCc1cc(Nc2nccc(-c3c(-c4ccc(OC)c(C(=O)Nc5c(F)cccc5F)c4)nc4ccccn34)n2)c(OC)cc1N1CCC(N2CCN(S(C)(=O)=O)CC2)CC1`, the GI50 in [1] was above 48.3 µM; in experiment [2], above 100 µM; in experiment [3], above 100 µM; in [4], above 100 µM; in experiment [5], above 100 µM; in experiment [6], above 100 µM. Also, the GI50 in experiment [7] was above 51.8 µM; in [8], above 56.6 µM; in [9], above 100 µM; in experiment [10], above 90.4 µM. Also, the TGI in experiment [1], in experiment [2], in experiment [3], in experiment [4], in experiment [5] and in [6] was above 100 µM in each case. Moreover, the TGI in experiment [7] is above 88.4 µM; in experiment [8] it was above 100 µM; in [9], above 100 µM; in experiment [10] it was above 100 µM.
